From patent US9062066B2, “Anti-inflammatory compound having inhibitory activity against multiple tyrosine kinases and pharmaceutical composition containing same” (KOREA INSTITUTE OF SCIENCE AND TECHNOLOGY, priority 2010, dated 2015)

Columns and labels:
Format in all cases: biochemical
Lyn tyrosine kinase = Lyn tyrosine kinase (Homo sapiens (Human), UniProt P07948); assay: in vitro Lyn tyrosine kinase inhibition; settings: 1 uM compound; read-out: % inhibition against Lyn
Fgr tyrosine kinase = Fgr tyrosine kinase (Homo sapiens (Human), UniProt P09769); assay: in vitro Fgr tyrosine kinase inhibition; settings: 1 uM compound; read-out: % inhibition against Fgr
Chain of Fgr tyrosine kinase (P09769 whole entry): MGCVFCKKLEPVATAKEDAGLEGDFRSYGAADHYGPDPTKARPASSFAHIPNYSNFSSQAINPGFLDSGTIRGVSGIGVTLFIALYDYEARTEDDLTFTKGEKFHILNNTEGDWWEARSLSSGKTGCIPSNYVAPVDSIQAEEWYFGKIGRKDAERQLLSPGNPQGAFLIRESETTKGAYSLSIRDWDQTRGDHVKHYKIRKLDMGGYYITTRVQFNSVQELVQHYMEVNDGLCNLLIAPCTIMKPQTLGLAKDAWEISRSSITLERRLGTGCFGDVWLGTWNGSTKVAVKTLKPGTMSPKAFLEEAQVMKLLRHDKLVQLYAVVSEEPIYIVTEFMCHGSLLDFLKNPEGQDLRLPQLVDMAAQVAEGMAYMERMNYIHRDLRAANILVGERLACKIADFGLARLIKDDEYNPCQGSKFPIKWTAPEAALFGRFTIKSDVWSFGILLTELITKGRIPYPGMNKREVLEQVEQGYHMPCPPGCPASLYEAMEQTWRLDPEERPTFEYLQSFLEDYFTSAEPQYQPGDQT

c-Src tyrosine kinase = c-Src tyrosine kinase (Homo sapiens (Human), UniProt P12931); assay: in vitro c-Src tyrosine kinase inhibition (32P-ATP, poly(D4Y)n substrate); settings: 1 uM compound; read-out: % inhibition against c-Src
Chain of c-Src tyrosine kinase (P12931 whole entry, looked up): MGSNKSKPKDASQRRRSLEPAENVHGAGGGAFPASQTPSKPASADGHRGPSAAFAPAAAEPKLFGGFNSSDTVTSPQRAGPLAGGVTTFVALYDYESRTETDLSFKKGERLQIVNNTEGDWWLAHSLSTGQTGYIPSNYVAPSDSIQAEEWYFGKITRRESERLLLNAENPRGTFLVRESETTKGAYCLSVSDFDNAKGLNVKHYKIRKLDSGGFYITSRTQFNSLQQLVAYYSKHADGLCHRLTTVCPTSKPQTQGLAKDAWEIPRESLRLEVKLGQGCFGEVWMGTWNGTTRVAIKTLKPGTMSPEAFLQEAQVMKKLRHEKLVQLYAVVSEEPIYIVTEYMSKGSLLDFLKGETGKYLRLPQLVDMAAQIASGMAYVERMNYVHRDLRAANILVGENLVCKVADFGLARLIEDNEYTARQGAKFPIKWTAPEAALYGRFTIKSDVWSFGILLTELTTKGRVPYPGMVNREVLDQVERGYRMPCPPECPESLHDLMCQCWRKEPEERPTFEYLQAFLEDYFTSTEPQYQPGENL

Hck tyrosine kinase = Hck tyrosine kinase (Homo sapiens (Human), UniProt P08631); assay: in vitro Hck tyrosine kinase inhibition; settings: 1 uM compound; read-out: % inhibition against Hck
Chain of Hck tyrosine kinase (P08631 whole entry, the tested form may be a part): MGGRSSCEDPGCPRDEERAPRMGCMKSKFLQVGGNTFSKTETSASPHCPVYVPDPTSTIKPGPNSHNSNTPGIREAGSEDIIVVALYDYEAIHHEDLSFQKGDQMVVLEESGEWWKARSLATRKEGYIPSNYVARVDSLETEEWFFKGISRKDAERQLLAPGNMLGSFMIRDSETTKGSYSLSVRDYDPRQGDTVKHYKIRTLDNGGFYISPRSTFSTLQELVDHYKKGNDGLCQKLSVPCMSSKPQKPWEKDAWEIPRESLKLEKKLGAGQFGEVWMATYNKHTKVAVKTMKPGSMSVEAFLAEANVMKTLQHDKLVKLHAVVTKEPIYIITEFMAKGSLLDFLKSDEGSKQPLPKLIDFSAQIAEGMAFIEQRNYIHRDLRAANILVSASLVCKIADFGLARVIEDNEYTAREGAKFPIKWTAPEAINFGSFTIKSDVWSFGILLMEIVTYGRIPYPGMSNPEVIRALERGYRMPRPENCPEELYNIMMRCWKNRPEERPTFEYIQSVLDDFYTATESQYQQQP

DDR1 tyrosine kinase = DDR1 tyrosine kinase (Homo sapiens (Human), UniProt Q08345); assay: in vitro DDR1 tyrosine kinase inhibition (GST-fused kinase domain); settings: 1 uM compound; read-out: % inhibition against DDR1
Chain of DDR1 tyrosine kinase (Q08345 610-905): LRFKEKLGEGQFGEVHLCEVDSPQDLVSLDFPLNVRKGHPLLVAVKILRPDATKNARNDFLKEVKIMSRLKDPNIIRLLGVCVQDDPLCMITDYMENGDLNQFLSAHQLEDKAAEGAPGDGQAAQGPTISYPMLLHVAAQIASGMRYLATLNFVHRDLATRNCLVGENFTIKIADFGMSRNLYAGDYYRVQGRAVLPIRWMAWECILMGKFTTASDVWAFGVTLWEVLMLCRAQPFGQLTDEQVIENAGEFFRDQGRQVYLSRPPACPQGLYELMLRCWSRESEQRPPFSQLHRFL

DDR2 tyrosine kinase = DDR2 tyrosine kinase (Homo sapiens (Human), UniProt Q16832); assay: in vitro DDR2 tyrosine kinase inhibition (GST-fused kinase domain); settings: 1 uM compound; read-out: % inhibition against DDR2
Chain of DDR2 tyrosine kinase (Q16832 563-849): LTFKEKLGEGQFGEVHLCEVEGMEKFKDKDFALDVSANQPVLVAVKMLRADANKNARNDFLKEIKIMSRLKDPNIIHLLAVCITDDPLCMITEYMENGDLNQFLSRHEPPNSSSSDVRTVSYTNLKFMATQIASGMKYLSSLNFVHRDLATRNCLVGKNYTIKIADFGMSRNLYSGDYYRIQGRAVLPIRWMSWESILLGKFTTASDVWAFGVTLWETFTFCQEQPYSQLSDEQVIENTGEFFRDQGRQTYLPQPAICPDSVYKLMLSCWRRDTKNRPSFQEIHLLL

Chain of Lyn tyrosine kinase (P07948 whole entry): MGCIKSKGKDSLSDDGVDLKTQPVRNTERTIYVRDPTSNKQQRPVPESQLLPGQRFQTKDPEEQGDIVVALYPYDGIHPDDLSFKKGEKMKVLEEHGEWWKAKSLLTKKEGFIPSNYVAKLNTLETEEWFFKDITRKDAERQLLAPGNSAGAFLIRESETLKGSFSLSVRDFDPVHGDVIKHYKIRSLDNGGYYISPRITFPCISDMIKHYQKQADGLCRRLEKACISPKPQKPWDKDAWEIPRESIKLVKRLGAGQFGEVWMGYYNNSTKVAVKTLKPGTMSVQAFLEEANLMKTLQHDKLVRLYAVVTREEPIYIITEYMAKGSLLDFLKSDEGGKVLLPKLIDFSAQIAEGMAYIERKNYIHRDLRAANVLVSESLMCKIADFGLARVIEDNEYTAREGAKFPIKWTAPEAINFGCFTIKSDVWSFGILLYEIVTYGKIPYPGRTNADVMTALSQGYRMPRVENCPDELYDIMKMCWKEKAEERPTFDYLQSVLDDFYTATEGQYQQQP

SMILES	inhibition at 1 µM (Lyn tyrosine kinase)	inhibition at 1 µM (Fgr tyrosine kinase)	inhibition at 1 µM (c-Src tyrosine kinase)	inhibition at 1 µM (Hck tyrosine kinase)	inhibition at 1 µM (DDR1 tyrosine kinase)	inhibition at 1 µM (DDR2 tyrosine kinase)
CN1CCN(C(=O)c2ccc(-c3cc4ncnc(Nc5cccc(O)c5)c4s3)cc2)CC1 [LCB 03-0052, (4-(4-(3-hydroxyphenylamino)thieno[3,2-d]pyrimidin-6-yl)phenyl)(4-methylpiperazin-1-yl)methanone]	> 60%	> 50%	> 60%	> 60%	> 80%	> 80%
Oc1cccc(Nc2ncnc3cc(-c4ccc(Cl)cc4)sc23)c1 [LCB 03-0019, 3-(6-(4-chlorophenyl)thieno[3,2-d]pyrimidin-4-ylamino)phenol]	> 60%	> 60%	> 60%	> 60%	> 70%	> 70%
Oc1cccc(Nc2ncnc3cc(-c4cc(CN5CCNCC5)cs4)sc23)c1 [LCB 03-0105, 3-(6-(4-(piperazin-1-ylmethyl)thiophene-2-yl)thieno[3,2-d]pyrimidin-4-ylamino)phenol]	> 50%	> 50%	> 50%	> 50%	> 70%	> 70%
O=C(O)c1cccc(-c2cc3ncnc(Nc4cccc(O)c4)c3s2)c1 [LCB 03-0051, 3-(4-(3-hydroxyphenylamino)thieno[3,2-d]pyrimidin-6-yl)benzoic acid]					> 80%	> 80%
COc1cccc(Nc2ncnc3cc(-c4ccc(OCCc5ccccn5)cc4)sc23)c1 [LCB 03-0022, N-(3-methoxyphenyl)-6-(4-(2-(pyridin-2-yl)ethoxy)phenyl)thieno[3,2-d]pyrimidin-4-amine]	> 60%	> 60%	> 60%	> 60%	> 10%	> 10%
CN1CCN(c2nc3ncnc(Nc4cccc(O)c4)c3s2)CC1 [LCB 03-0100, 3-(2-(4-methylpiperazin-1-yl)thiazolo[4,5-d]pyrimidin-7-ylamino)phenol]	> 30%	> 30%	> 30%	> 30%	> 70%	> 70%
COc1cccc(Nc2ncnc3cc(-c4ccc(OCCc5ccccc5)cc4)sc23)c1 [LCB 03-0021, N-(3-methoxyphenyl)-6-(4-phenethoxyphenyl)thieno[3,2-d]pyrimidin-4-amine]	> 60%	> 60%	> 50%	> 60%	> 30%	> 30%
COc1cccc(Nc2ncnc3cc(-c4ccsc4)sc23)c1 [LCB 03-0028, (3-Methoxyphenyl)-(6-thiophene-3-yl-thieno[3,2-d]pyrimidin-4-yl)-amine]	> 30%	> 30%	> 30%	> 30%	> 50%	> 50%
O=C(O)C1CCCN1Cc1ccc(-c2cc3ncnc(Nc4cccc(O)c4)c3s2)cc1 (stereo not drawn) [LCB 03-0069, 1-(4-(4-(3-hydroxyphenylamino)thieno[3,2-d]pyrimidin-6-yl)benzyl)pyrrolidine-2-carboxylic acid]					> 50%	> 50%
Oc1cccc(Nc2ncnc3cc(-c4ccc(CCN5CCCCC5)cc4)sc23)c1 [LCB 03-0044]	> 30%	> 30%	> 30%	> 30%	> 80%	> 80%
CN1CCN(CCc2ccc(-c3cc4ncnc(Nc5cccc(O)c5)c4s3)cc2)CC1 [LCB 03-0045]	> 30%	> 20%	> 30%	> 20%	> 80%	> 80%
Oc1cccc(Nc2ncnc3cc(-c4ccsc4)sc23)c1 [LCB 03-0031, 3-(6-Thiophene-3-yl-thieno[3,2-d]pyrimidin-4-ylamino)-phenol]	> 30%	> 40%	> 40%	> 40%	> 70%	> 70%
CN1CCN(Cc2coc(-c3cc4ncnc(Nc5cccc(O)c5)c4s3)c2)CC1 [LCB 03-0114, 3-(6-(4-((4-methylpiperazin-1-yl)methyl)furan-2-yl)thieno[3,2-d]pyrimidin-4-ylamino)phenol]	> 50%	> 50%	> 50%	> 50%	> 70%	> 70%
CCN(CC)C(=O)Cc1ccc(-c2cc3ncnc(Nc4cccc(O)c4)c3s2)cc1 [LCB 03-0050, N,N-diethyl-2-(4-(4-(3-hydroxyphenylamino)thieno[3,2-d]pyrimidin-6-yl)phenyl)acetamide]	> 40%	> 40%	> 40%	> 40%	> 80%	> 80%
CN1CCN(C(=O)c2cccc(-c3cc4ncnc(Nc5cccc(O)c5)c4s3)c2)CC1 [LCB 03-0055, (3-(4-(3-hydroxyphenylamino)thieno[3,2-d]pyrimidin-6-yl)phenyl)(4-methylpiperazin-1-yl)methanone]	> 50%	> 50%	> 50%	> 50%	> 80%	> 80%
Oc1cccc(Nc2ncnc3cc(-c4cc(CN5CCCC5)co4)sc23)c1 [LCB 03-0113, 3-(6-(4-(pyrrolidin-1-ylmethyl)furan-2-yl)thieno[3,2-d]pyrimidin-4-ylamino)phenol]	> 50%	> 50%	> 50%	> 50%	> 70%	> 70%
Oc1cccc(Nc2ncnc3cc(-c4cc(CN5CCOCC5)cs4)sc23)c1 [LCB 03-0104, 3-(6-(4-(morpholinomethyl)thiophene-2-yl)thieno[3,2-d]pyrimidin-4-ylamino)phenol]	> 50%	> 50%	> 50%	> 50%	> 80%	> 80%
COc1cccc(Nc2ncnc3cc(-c4ccc(OCCN5CCNCC5)cc4)sc23)c1 [LCB 03-0029, N-(3-methoxyphenyl)-6-(4-(2-(piperazin-1-yl)ethoxy)phenyl)thieno[3,2-d]pyrimidin-4-amine]	> 60%	> 60%	> 60%	> 60%	> 20%	> 20%
COc1cccc(Nc2ncnc3cc(-c4ccoc4)sc23)c1 [LCB 03-0024, (6-Furan-3-yl-thieno[3,2-d]pyrimidin-4-yl)-(3-methoxyphenyl)-amine]	> 30%	> 30%	> 30%	> 30%	> 70%	> 70%
COC(=O)C1CCCN1Cc1ccc(-c2cc3ncnc(Nc4cccc(O)c4)c3s2)cc1 (stereo not drawn) [LCB 03-0056, methyl 1-(4-(4-(3-hydroxyphenylamino)thieno[3,2-d]pyrimidin-6-yl)benzyl)pyrrolidine-2-carboxylate]	> 50%	> 50%	> 50%	> 50%	> 80%	> 80%
COc1cccc(Nc2ncnc3cc(-c4ccco4)sc23)c1 [LCB 03-0023, (6-Furan-2-yl-thieno[3,2-d]pyrimidin-4-yl)-(3-methoxyphenyl)-amine]	> 40%	> 40%	> 40%	> 40%	> 60%	> 60%
Oc1cccc(Nc2ncnc3cc(-c4cc(CN5CCCCC5)co4)sc23)c1 [LCB 03-0115, 3-(6-(4-(piperidin-1-ylmethyl)furan-2-yl)thieno[3,2-d]pyrimidin-4-ylamino)phenol]	> 50%	> 50%	> 50%	> 50%	> 70%	> 70%
COc1cccc(Nc2ncnc3cc(-c4ccc(O)cc4)sc23)c1 [LCB 03-0016, 4-(4-(3-methoxyphenylamino)thieno[3,2-d]pyrimidin-6-yl)phenol]	> 70%	> 70%	> 70%	> 70%	> 20%	> 20%
N#Cc1ccc(-c2cc3ncnc(Nc4cccc(O)c4)c3s2)cc1 [LCB 03-0013, 4-(4-(3-hydroxyphenylamino)thieno[3,2-d]pyrimidin-6-yl)benzonitrile]	> 70%	> 60%	> 70%	> 70%	> 60%	> 60%
NC(=O)C1CCCN1Cc1ccc(-c2cc3ncnc(Nc4cccc(O)c4)c3s2)cc1 (stereo not drawn) [LCB 03-0068, 1-(4-(4-(3-hydroxyphenylamino)thieno[3,2-d]pyrimidin-6-yl)benzyl)pyrrolidine-2-carboxamide]					> 80%	> 80%
